Patent US7901906B2, “Targeting of MKRN1 for identifying cancer treatment agents” (University of Central Florida Research Foundation, Inc., priority 2006, dated 2011)

Assays:
hTERT [1] = test: hTERT protein levels by immunoblotting in H1299 cells; assay type: cell-based, human
Protocol: FIG. 1. hTERT is sensitive to the Hsp90 antagonist geldanamycin. (A) Down-regulation of ectopically expressed hTERT by GA. H1299 cells transfected with Flag-hTERT or Flag-TRF1 were treated with 0.1 μM GA for the indicated times. Lysates were resolved on 8% SDS-PAGE and analyzed by immunoblotting using an anti-Flag antibody probe. Cells were pretreated with 10 μM MG132 or E-64 for 2 hours, either alone or before treatment with GA. (B) Concentration dependence of GA on hTERT. H1299 cells transfected with Flag-hTERT or hTERT-HA were treated for 2 hours with the GA concentration indicated. The hTERT polypeptides were visualized with anti-Flag or anti-HA antibodies as marked by each blot. (C) Down-regulation of endogenous hTERT by GA. H1299 cells were treated with 0.1 μM GA for the indicated times, and cell lysates were analyzed by immunoprecipitation with anti-hTERT antibody followed by immunoblotting using same antibody probe. Cells were pretreated with 10 μM MG132 for 2 hours, either alone or before treatment with GA. Molecular weight markers are shown in kilodaltons. (D) H1299 cells were treated with 0.1 μM GA for the indicated times, and cell lysates were analyzed for telomerase activity by the TRAP assay. The lane labeled LB corresponds to the negative control (lysis buffer only). ITAS represents the internal telomerase assay standard. (E) Saos-2 cells transfected with Flag-hTERT or hTERT-HA or empty vector were untreated or treated with 0.1 μM GA for 16 hours, and cell lysates were analyzed for telomerase activity using the TRAP assay.
(§1) FIG. 2. hTERT is ubiquitinated prior to proteasome-mediated degradation. (A) H1299 cells were co-transfected with Flag-hTERT and HA-ubiquitin. Cells were either untreated or treated for 2 hours with 10 μg/ml ALLnN or 0.1 μM GA, or a combination of the two as specified above each lane. Immunoprecipitation was performed with anti-Flag antibody before probing with anti-hTERT or anti-HA antibodies as indicated besides each blot. Molecular weight markers are shown in kilodaltons. (B) H1299 cells co-transfected with Flag-hTERT and HA-ubiquitin were treated for 1 hour with the GA concentration indicated in the presence of 10 μM MG132. Immunoprecipitation was performed with anti-Flag antibody followed by immunoblotting using an anti-HA antibody probe. (C) H1299 cells co-transfected with Flag-hTERT and HA-ubiquitin were either untreated or treated for 2 hours with 10 μg/ml ALLnN as specified above each lane. Proteins were immunoprecipated with anti-Flag antibody followed by immunoblotting using an anti-HA antibody probe.
The human lung carcinoma cell line H1299 was cultured in RPMI-1640 medium, and the human fibrosarcoma cell line HT1080 was cultured in Dulbecco's modified Eagle's medium supplemented with 10% fetal bovine serum, 100 units/ml penicillin, and 100 μg/ml streptomycin in 5% CO2 at 37° C. The human osteosarcoma cell line Saos-2 was maintained in McCoy's 5A medium containing 15% fetal bovine serum, 100 units/ml penicillin, and 100 μg/ml streptomycin. To establish cell lines stably expressing MKRN1, the MKRN1-V5 construct was transfected into HT1080 cells using Lipofectamine Plus (Invitrogen, Carlsbad, Calif.) according to the manufacturer's instructions. As a control, HT1080 cells were also stably transfected with an empty vector. Multiple independent single clones were isolated and checked for protein expression by immunoblotting with anti-V5 antibody.
H1299 cells were transiently transfected with the expression vectors indicated in the figure legends using TransFast transfection reagent (Promega, Madison, Wis.) according to the manufacturer's instructions. Cells were lysed with buffer containing 0.5% NP-40, 50 mM Tris-HCl (pH 7.5), 150 mM NaCl, 2 mM phenyl methylsulphonyl fluoride. […]

[2] = test system: hTERT (residues 946-1132); test: In vitro ubiquitination assay; assay type: biochemical, human; conditions: purified components, E1, E2, His6-ubiquitin, 30° C., 60 min
Protocol: (§2) FIG. 4. MKRN1 functions as an E3 ubiquitin-ligase for hTERT in vitro and in vivo. (A) HA-tagged hTERT (residues 946-1132) was incubated MKRN1 or mutants in the presence of E1, E2, His6-ubiquitin (6×His tag disclosed as SEQ ID NO: 7). Samples were resolved by 6% SDS-PAGE and analyzed by immunoblotting with an anti-HA antibody probe. (B) H1299 cells were co-transfected with Flag-hTERT, HA-ubiquitin, MKRN1-V5, and together with either MKRN1^H307E-V5 or MKRN1^Δ^C-V5 as specified. Cells were untreated or treated with 10 μM MG132 for 2 hours. Anti-Flag immunoprecipitates and cell lysates were analyzed by immunoblotting with anti-HA antibody and anti-V5 antibody probes, respectively. (C) H1299 cells co-transfected with Flag-hTERT and HA-ubiquitin, and together with or without MKRN1-V5 as indicated were treated with 10 μM MG132 for the indicated times. Anti-Flag immunoprecipitates and cell lysates were analyzed by immunoblotting with anti-HA antibody and anti-V5 antibody probes, respectively.
GST-hTERT-HA expressed in bacteria was used as substrate for in vitro ubiquitination assay (Park et al. 2004). The ubiquitination reactions were carried out in buffer (50 mM Tris-HCl, pH 7.5, 2 mM ATP, 2.5 mM MgCl2, 5 mM dithiothreitol, and 0.05% NP-40) containing yeast E1 (0.05 μg), E2 (0.2 μg), and His6-ubiquitin (0.8 μg) (6×His disclosed as SEQ ID NO: 7) in a final volume of 30 μl. […]

hTERT [3] = test: Ubiquitination of hTERT in H1299 cells (immunoprecipitation, anti-HA immunoblot); assay type: cell-based, human; conditions: H1299 Flag-hTERT and HA-ubiquitin, MG132
Protocol: as §1, §2
H1299 cells were transiently transfected with the expression vectors indicated in the figure legends using TransFast transfection reagent (Promega, Madison, Wis.) according to the manufacturer's instructions. Cells were lysed with buffer containing 0.5% NP-40, 50 mM Tris-HCl (pH 7.5), 150 mM NaCl, 2 mM phenyl methylsulphonyl fluoride. After centrifugation at 12,000 rpm for 30 min, the supernatants were immunoprecipitated for 2 hours with anti-Flag (Sigma, St. Louis, Mo.) or anti-HA (Santa Cruz biotechnology, Santa Cruz, Calif.) antibodies and then incubated with Sepharose beads conjugated to Protein G (Amersham Biosciences Inc., Piscataway, N.J.). When ubiquitin conjugates of hTERT were detected, immunoprecipitation was performed with lysis buffer containing 0.1% SDS to dissociate its interacting proteins. Immunoblot analyses were performed using anti-hTERT (Santa Cruz biotechnology, Santa Cruz, Calif.), anti-V5 (Invitrogen, Carlsbad, Calif.), anti-HA, and anti-Flag antibodies.
GA-mediated protein degradation by the proteasome depends on conjugation of ubiquitin to the Hsp90 client protein (Isaacs et al. 2002; Citri et al. 2002). To determine whether hTERT is ubiquitinated in vivo prior to its degradation, H1299 cells co-transfected with Flag-tagged hTERT and HA-tagged ubiquitin constructs were treated with GA, ALLnN (a general proteasome inhibitor) or both. The immunoprecipitated products were evaluated by immunoblotting with selected probes as described in FIG. 2. […]

Molecule: COC1=C2C[C@@H](C)C[C@H](OC)[C@H](O)[C@@H](C)/C=C(\C)[C@H](OC(N)=O)[C@@H](OC)/C=C\C=C(/C)C(=O)NC(=CC1=O)C2=O [GA, geldanamycin]
- hTERT protein eliminated (hTERT [1]; H1299 transfected with Flag-hTERT, 0.1 μM GA, within 2 hours): over 50%

Molecule: CC(C)C[C@H](NC(=O)[C@H]1O[C@@H]1C(=O)O)C(=O)NCCCCN=C(N)N [E-64]
- effect on GA-induced down-regulation of hTERT (hTERT [1]; H1299 Flag-hTERT, 10 μM pretreatment 2 hours, then GA 4 hours): had no effect
- hTERT expression levels, inhibitor alone (hTERT [1]; H1299 Flag-hTERT, 10 μM, absence of GA, relative to untreated controls): did not cause a significant change

B1: MKRN1^H307E: MKRN1 mutant with mutated histidine residue in the RING finger domain (protein)
chain: MAEAATPGTTATTSGAGAAAATAAAASPTPIPTVTAPSLGAGGGGGGSDGSGGGWTKQVTCRYFMHGVCKEGDNCRYSHDLSDSPYSVVCKYFQRGYCIYGDRCRYEHSKPLKQEEATATELTTKSSLAASSSLSSIVGPLVEMNTGEAESRNSNFATVGAGSEDWVNAIEFVPGQPYCGRTAPSCTEAPLQGSVTKEESEKEQTAVETKKQLCPYAAVGECRYGENCVYLHGDSCDMCGLQLLHPMDAAQRSQHIKSCIEAHEKDMELSFAVQRSKDMVCGICMEVVYEKANPSERRFGILSNCNETYCLKCIRKWRSAKQFESKIIKSCPECRITSNFVIPSEYWVEEKEEKQKLILKYKEAMSNKACRYFDEGRGSCPFGGNCFYKHAYPDAGREEPQRQKVGTSSRYRAQRRNHFWELIEERENSNPFDNDEEEVVTFELGEMLLMLLAAGGDDELTDSEDEWDLFHDELEDFYDLDL
modifications: left off: small tags and cut ends
- ubiquitination of C-terminal domain of hTERT [2]: not
- amount of ubiquitinated hTERT on co-expression (hTERT [3]): significantly reduced
